Ki and solubility data for five compounds are collected here from patent publication US20100173835A1, “Peptides for Treatment of Obesity” (Novo Nordisk A/S, priority 2008, published 2010).

The target in data set [1] is T1, human MC4 receptor (Homo sapiens, UniProt P32245).
T1 construct: expressed in transfected cells
As to the kind of experiment: Assay (V) Melanocortin Receptor 4 (MC4) binding assay. Particulars: 125NDP-α-MSH binding, BHK cell membranes; for Ki: Assay (V) MC4 [Ki] (nM); for pKi: read-out: Assay (V) MC4 [Ki]. The protocol: Assay (V)—Melanocortin Receptor 4 (MC4) Binding Assay
In vitro ^125NDP-α-MSH binding to recombinant BHK cells expressing human MC4 receptor (filtration assay).
The assay is performed in 5 ml minisorb vials (Sarstedt No. 55.526) or in 96-well filterplates (Millipore MADVN 6550), and using BHK cells expressing the human MC4 receptor using BHK cells stably expressing the human MC4 receptor. The membranes were prepared from frozen or fresh cells that were homogenized in 20 mM HEPES pH 7.1, 5 mM MgCl2 and 1 mg/ml bacitracin and centrifuged at 15000 rpm at 4° C., 10 min in a Sorvall RC 5B plus, SS-34 rotor. The supernatant was discarded, and the pellets were re-suspended in buffer, homogenized and centrifuged two more times. The final pellets were resuspended in the buffer mentioned above, and the protein concentration was measured and adjusted with buffer to 14 to 17 mg/ml and the membrane preparation were kept at −80° C. until assay. The assay was run directly on a dilution of this cell membrane suspension, without any further preparation. The BHK cell membranes are kept at −80° C. until assay, and the assay is run directly on a dilution of this cell membrane suspension, without further preparation. The suspension is diluted to give maximally 10% specific binding, i.e. to approx. 50-100 fold dilution. The assay is performed in a total volume of 200 μl: 50 μl of cell suspension, 50 μl of ^125NDP-α-MSH (≈79 pM in final concentration), 50 μl of test compound and 50 μl binding buffer (pH 7) mixed and incubated for 2 h at 25° C. [binding buffer: 25 mM HEPES, pH 7.0, 1 mM CaCl2, 1 mM MgSO4, 1 mM EGTA, 0.02% Bacitracin, 0.005% Tween™ 20 and 0.1% HSA or, alternatively, 0.1% ovalbumin (Sigma; catalogue No. A-5503)]. Test compounds are dissolved in DMSO and diluted in binding buffer. Radiolabelled ligand and membranes are diluted in binding buffer. The incubation is stopped by dilution with 2×100 μl ice-cold 0.9% NaCl. The radioactivity retained on the filters is counted using a Cobra II auto gamma counter.
(§1) The data are analysed by non-linear regression analysis of binding curves, using the Windows™ program GraphPad™ Prism (GraphPad Software, USA).

For data set [2], the target named is T2, MC1 receptor (Homo sapiens, UniProt Q01726).
T2 construct: expressed in transfected cells
Description: Assay (IV) Melanocortin Receptor 1 (MC1) binding assay. The protocol:
Assay (IV)—Melanocortin Receptor 1 (MC1) Binding Assay
The MC1 receptor binding assay is performed on BHK cell membranes stably expressing the MC1 receptor. The assay is performed in a total volume of 250 NI: 25 μl of ^125NDP-α-MSH (22 pM in final concentration), 25 μl of test compound/control and 200 μl of cell membrane (25 μg/ml). Test compounds are dissolved in DMSO. Radioactively labeled ligand, membranes and test compounds are diluted in buffer: 25 mM HEPES, pH 7.4, 0.1 mM CaCl2, 1 mM MgSO4, 1 mM EDTA, 0.1% HSA and 0.005% Tween™ 20. Alternatively, HSA may be substituted with ovalbumin. The samples are incubated at 30° C. for 90 min. in Costar round-bottom microtiter plates. Incubation is terminated by filtration on a Packard harvester filtermate. Rapid filtration through Packard Unifilter-96 GF/B filters pre-treated with polyethylenimine (PerkinElmer 6005277). The filters are washed with ice-cold 0.9% NaCl 8-10 times. The plates is air dried at app. 55° C. for 30 min, and 50 μl Microscint 0 (Packard, cat. No. 6013616) is added to each well. The plates are counted in a Topcounter (1 min/well).
as §1

The nature of data set [3]: Solubility data of compounds in water over the pH range. Format: physicochemical. Particulars: read-out: Conc (solubility in water).
[4] abbreviates: 125NDP-α-MSH binding, BHK cell membranes, read-out: Assay (IV) MC1 Ki.

A word on the Ki: it is the equilibrium dissociation constant of an inhibitor or competing ligand from its target. A lower Ki goes with higher affinity. What is called pKi is −log10 of the Ki, conventionally taken in molar units. Broadly, the solubility is the dissolved amount per volume that the medium holds.

SMILES strings stand for the structures. pKi: −log10 of the molar value. Values after ≈ are worked out from the molar mass of the structure shown. Read-outs that look alike come from different tables or passages of the source. *1 amine or outer side, *2 acyl side, *3 side chain or, on linkers, in order; H or OH if unused. Where a SMILES comes first, the peptide text is derived from it. Bridges are numbered along the chain shown (N, C = ends). [ ]: non-standard residue; d: D form. The star is where a group is joined. Palmitoyl(16-(5-tetrazolyl)) = O=C(CCCCCCCCCCCCCCCc1nnn[nH]1)*; Lys(CH2CO2H)2 = N[C@@H](CCCCN(CC(=O)O)CC(=O)O)C(=O)O; X1 = O=C(O)CN(CC(=O)O)C[C@H](N[*:1])C(=O)[*:2]; C20 diacid = O=C(O)CCCCCCCCCCCCCCCCCCC(=O)*; Hyp = O=C(O)[C@@H]1C[C@@H](O)CN1; NTA = O=C(O)CN(CC(=O)O)CC(=O)*; Nle = CCCC[C@H](N)C(=O)O; Dap = NC[C@H](N)C(=O)O; AEEA = NCCOCCOCC(=O)O; βAla = NCCC(=O)O Some results are limits rather than exact numbers.

T2 sequence (Q01726 whole entry): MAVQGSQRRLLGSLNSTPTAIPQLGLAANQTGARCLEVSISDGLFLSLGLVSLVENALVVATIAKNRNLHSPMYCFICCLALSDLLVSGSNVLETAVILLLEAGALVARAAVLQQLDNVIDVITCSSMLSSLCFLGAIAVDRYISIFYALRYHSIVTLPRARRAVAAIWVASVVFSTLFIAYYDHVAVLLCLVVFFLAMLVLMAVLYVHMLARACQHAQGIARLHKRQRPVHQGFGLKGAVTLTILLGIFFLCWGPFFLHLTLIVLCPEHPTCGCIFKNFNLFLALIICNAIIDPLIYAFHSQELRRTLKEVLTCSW
T1 sequence (P32245 whole entry): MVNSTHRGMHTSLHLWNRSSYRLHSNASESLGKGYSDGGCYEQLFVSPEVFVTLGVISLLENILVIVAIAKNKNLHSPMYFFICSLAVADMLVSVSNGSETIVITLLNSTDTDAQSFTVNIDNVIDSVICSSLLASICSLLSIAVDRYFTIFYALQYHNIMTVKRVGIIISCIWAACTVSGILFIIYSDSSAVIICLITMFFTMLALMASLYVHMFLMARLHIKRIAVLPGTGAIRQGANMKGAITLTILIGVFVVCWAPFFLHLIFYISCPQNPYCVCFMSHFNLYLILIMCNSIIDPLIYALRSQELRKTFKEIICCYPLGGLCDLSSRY

On to `CCCC[C@H](NC(=O)[C@H](CCCCN(CC(=O)O)CC(=O)O)NC(=O)[C@H](Cc1c[nH]cn1)NC(=O)[C@H](CCC(N)=O)NC(=O)[C@H](CO)NC(=O)[C@H](CO)NC(=O)[C@H](CCC(N)=O)NC(=O)[C@@H](CO)NC(=O)CNC(=O)COCCOCCNC(=O)COCCOCCNC(=O)CCCCCCCCCCCCCCCc1nnn[nH]1)C(=O)N[C@H]1CCC(=O)NCCCC[C@@H](C(N)=O)NC(=O)[C@H](Cc2c[nH]c3ccccc23)NC(=O)[C@H](CCCNC(=N)N)NC(=O)[C@@H](Cc2ccccc2)NC(=O)[C@@H]2C[C@@H](O)CN2C1=O` [Example 3, (2-{2-[2-(2-{2-[16-(Tetrazol-5-yl)hexadecanoylamino]ethoxy}ethoxy)acetylamino]ethoxy}ethoxy)acetyl-Gly-D-Ser-Gln-Ser-Ser-Gln-His-Lys(biscarboxymethyl)-Nle-c[Glu-Hyp-D-Phe-Arg-Trp-Lys]-NH2] ({Palmitoyl(16-(5-tetrazolyl))-AEEA-AEEA}-G[dS]QSSQH[Lys(CH2CO2H)2][Nle]E[Hyp][dF]RWK-NH2; lactam 10-15), for which the inhibition constant Ki in data set [1] was found to be 1.95 nM. Besides, in data set [2], the pKi is less than 5.00. Also, the solubility at 3 days is 435 µM (≈ 1100 µg/mL) in data set [3] (pH 2.95, pH 2.95); 570 µM (≈ 1440 µg/mL) in data set [3] (pH 3.88, pH 3.88); 429 µM (≈ 1080 µg/mL) in data set [3] (pH 4.82, pH 4.82); 324 µM (≈ 818 µg/mL) in data set [3] (pH 4.84, pH 4.84); 75 µM (≈ 189 µg/mL) in data set [3] (pH 5.18, pH 5.18); 39 µM (≈ 98.5 µg/mL) in data set [3] (pH 6.1, pH 6.10). For the same compound, the solubility at 3 days in data set [3] (pH 6.95, pH 6.95) was found to be 87 µM (≈ 220 µg/mL); in data set [3] (pH 7.15, pH 7.15), 190 µM (≈ 480 µg/mL); in data set [3] (pH 7.24, pH 7.24), 256 µM (≈ 646 µg/mL); in data set [3] (pH 7.29, pH 7.29) it was 316 µM (≈ 798 µg/mL).
Take `CCCC[C@H](NC(=O)[C@H](CCCCN(CC(=O)O)CC(=O)O)NC(=O)[C@H](Cc1c[nH]cn1)NC(=O)[C@H](CCC(N)=O)NC(=O)[C@H](CO)NC(=O)CNC(=O)COCCOCCNC(=O)CCCCCCCCCCCCCCCc1nnn[nH]1)C(=O)N[C@H]1CCC(=O)NCCCC[C@@H](C(N)=O)NC(=O)[C@H](Cc2c[nH]c3ccccc23)NC(=O)[C@H](CCCNC(=N)N)NC(=O)[C@@H](Cc2ccccc2)NC(=O)[C@@H]2C[C@@H](O)CN2C1=O` [Example 7, (2-{2-[16-(Tetrazol-5-yl)hexadecanoylamino]ethoxy}ethoxy)acetyl-Gly-Ser-Gln-His-Lys(biscarboxymethyl)-Nle-c[Glu-Hyp-D-Phe-Arg-Trp-Lys]-NH2] ({Palmitoyl(16-(5-tetrazolyl))-AEEA}-GSQH[Lys(CH2CO2H)2][Nle]E[Hyp][dF]RWK-NH2; lactam 7-12): in data set [1], the Ki turned out to be 1.6 nM. The same compound showed a negative-log Ki (pKi) in data set [2] of 5.06. The solubility at 3 days in data set [3] (pH 2.94, pH 2.94) came to 536 µM (≈ 1110 µg/mL); in data set [3] (pH 3.28, pH 3.28), 476 µM (≈ 989 µg/mL); in data set [3] (pH 3.59, pH 3.59), 398 µM (≈ 827 µg/mL); in data set [3] (pH 3.95, pH 3.95) it was 276 µM (≈ 573 µg/mL); in data set [3] (pH 4.75, pH 4.75) it was 42 µM (≈ 87.3 µg/mL); in data set [3] (pH 5.64, pH 5.64) it was 19 µM (≈ 39.5 µg/mL). The solubility at 3 days was determined as 18 µM (≈ 37.4 µg/mL) in data set [3] (pH 6.48, pH 6.48); 35 µM (≈ 72.7 µg/mL) in data set [3] (pH 6.98, pH 6.98); 262 µM (≈ 544 µg/mL) in data set [3] (pH 7.48, pH 7.48); 391 µM (≈ 812 µg/mL) in data set [3] (pH 7.78, pH 7.78).
On to `CCCC[C@H](NC(=O)[C@H](CNC(=O)CN(CC(=O)O)CC(=O)O)NC(=O)[C@H](Cc1ccc(O)cc1)NC(=O)[C@H](CCC(N)=O)NC(=O)[C@H](CO)NC(=O)CNC(=O)COCCOCCNC(=O)CCCCCCCCCCCCCCCc1nnn[nH]1)C(=O)N[C@H]1CCC(=O)NCCCC[C@@H](C(N)=O)NC(=O)[C@H](Cc2c[nH]c3ccccc23)NC(=O)[C@H](CCCNC(=N)N)NC(=O)[C@@H](Cc2ccccc2)NC(=O)[C@@H]2C[C@@H](O)CN2C1=O` [Example 19, (2-{2-[16-(Tetrazol-5-yl)hexadecanoylamino]ethoxy}ethoxy)acetyl-Gly-Ser-Gln-Tyr-Dap(BCMA)-Nle-c[Glu-Hyp-D-Phe-Arg-Trp-Lys]-NH2] ({Palmitoyl(16-(5-tetrazolyl))-AEEA}-GSQY[Dap](NTA)[Nle]E[Hyp][dF]RWK-NH2; lactam 7-12), for which the pKi in data set [1] was 8.41; in data set [2] (setting [4]) it was less than 5.00.
In turn, `CCCC[C@H](NC(=O)CCNC(=O)[C@H](CCCCN(CC(=O)O)CC(=O)O)NC(=O)[C@H](Cc1c[nH]cn1)NC(=O)[C@H](CCC(N)=O)NC(=O)[C@H](CO)NC(=O)[C@H](CO)NC(=O)[C@H](CCC(N)=O)NC(=O)[C@@H](CO)NC(=O)CNC(=O)COCCOCCNC(=O)COCCOCCNC(=O)CCCCCCCCCCCCCCCCCCC(=O)O)C(=O)N[C@H]1CCC(=O)NCCCC[C@@H](C(N)=O)NC(=O)[C@H](Cc2c[nH]c3ccccc23)NC(=O)[C@H](CCCNC(=N)N)NC(=O)[C@@H](Cc2ccccc2)NC(=O)[C@@H]2C[C@@H](O)CN2C1=O` [Example 22, {2-[2-(2-{2-[2-(19-Carboxynonadecanoylamino)ethoxy]ethoxy}acetylamino)ethoxy]ethoxy}acetyl-Gly-D-Ser-Gln-Ser-Ser-Gln-His-Lys(biscarboxymethyl)β-Ala-Nle-c[Glu-Hyp-D-Phe-Arg-Trp-Lys]-NH2] ({C20 diacid-AEEA-AEEA}-G[dS]QSSQH[Lys(CH2CO2H)2][βAla][Nle]E[Hyp][dF]RWK-NH2; lactam 11-16) came in with a Ki in data set [1] of 0.55 nM. Besides, the pKi in data set [2] was less than 5.00.
As for `CCCC[C@H](NC(=O)[C@H](CN(CC(=O)O)CC(=O)O)NC(=O)[C@H](Cc1ccc(O)cc1)NC(=O)[C@H](CCC(N)=O)NC(=O)[C@H](CO)NC(=O)CNC(=O)COCCOCCNC(=O)CCCCCCCCCCCCCCCc1nnn[nH]1)C(=O)N[C@H]1CCC(=O)NCCCC[C@@H](C(N)=O)NC(=O)[C@H](Cc2c[nH]c3ccccc23)NC(=O)[C@H](CCCNC(=N)N)NC(=O)[C@@H](Cc2ccccc2)NC(=O)[C@@H]2C[C@@H](O)CN2C1=O` [Example 23, (2-{2-[16-(Tetrazol-5-yl)hexadecanoylamino]ethoxy}ethoxy)acetyl-Gly-Ser-Gln-Tyr-Dap(biscarboxymethyl)-Nle-c[Glu-Hyp-D-Phe-Arg-Trp-Lys]-NH2] ({Palmitoyl(16-(5-tetrazolyl))-AEEA}-GSQY[X1][Nle]E[Hyp][dF]RWK-NH2; lactam 7-12), the pKi is 8.10 in data set [1] and less than 5.00 in data set [2] (setting [4]).
